Laboratory results reported in patent US10544092B2 (priority 2015, dated 2020).

What was measured:
Assay type in all cases: in vivo
[1] = tested on: melon bacterial fruit blotch; experiment: control of melon bacterial fruit blotch (seed soaking); conditions: dosage 800 mg/L, after 2 weeks
Procedure: Melon bacterial fruit blotch: The testing compound is dissolved in a small amount of DMF and diluted with water to the desired concentration. The pathogenic bacteria in the stable growth phase is mixed with the testing solution. After melon seeds (accelerating germination) soaked in the solution containing pathogenic bacteria and compound for 0.5 hour, the seeds are sown in earthworm soil cup and then transferred into a greenhouse to allow disease to develop. After 2 weeks, The activity of the compound is evaluated based on germination or growth of control treatment

[2] = tested on: soft rot of chinese cabbage; experiment: control of soft rot of chinese cabbage (cut leaves); conditions: dosage 400 mg/L, 48 hours
Procedure: Soft rot of chinese cabbage: Chinese cabbage leaves are cut into 2 cm square and placed on the double filter paper in a petri dish. The testing compound is dissolved in DMF and diluted with water to the desired concentration. The testing solution is sprayed onto the surface of the cabbage leaf and dried in a fume hood. The surface of cabbage leaf is pierced using inoculation needle. A spore suspension (5 μl) of the chinese cabbage soft rot bacteria in the stable growth phase is inoculated onto the breakage of leaves, disease development is allowed to progress in a growth cabinet under dark condition for 48 hours. The activity of the compound is evaluated based on germination or growth of control treatment.

[3] = tested on: bacterial leaf streak of rice (Xanthomonas oryzae pv. oryzicola); conditions: field trial; for Disease control (%) repeat I / Disease control (%) repeat II / Disease control (%) repeatIII: 400 g a.i./hm^2, a week after 3 spray applications; for Disease control (%) average: 400 g a.i./hm^2, average of repeats I-III

Compound | control against melon bacterial fruit blotch [1] [%] | control against soft rot of chinese cabbage [2] [%] | Disease control (%) repeat I [3] [%] | Disease control (%) repeat II [3] [%] | Disease control (%) repeatIII [3] [%] | Disease control (%) average [3] [%]
N#CC(C#N)=NOCc1cccc(Br)c1 [Compound 9] | 100 | 100 |  |  |  | 
COc1ccc(CON=C(C#N)C#N)cc1 [Compound 19] |  | 100 |  |  |  | 
N#CC(C#N)=NOCc1ccc([N+](=O)[O-])cc1 [Compound 34] |  | 100 |  |  |  | 
N#CC(C#N)=NOCc1cccc(C#N)c1 [Compound 36] |  | 100 |  |  |  | 
N#CC(C#N)=NOCc1ccc(C#N)cc1 [Compound 37] |  | 100 |  |  |  | 
N#CC(C#N)=NOCc1ccc(Cl)c(Cl)c1 [Compound 59] | 100 | 100 | 56.96 | 58.37 | 51.24 | 55.52
N#CC(C#N)=NOCc1ccc(F)c(F)c1 [Compound 83] | 100 | 100 |  |  |  | 
thiazole zinc [reference compound] |  |  | 39.21 | 37.24 | 37.88 | 38.11
